Results: publication PMC8505397, “Development of peptides targeting receptor binding site of the envelope glycoprotein to contain the West Nile virus infection” (Scientific Reports, 2021)

Legend:
[1] = molecular target: T1, interaction between rDIII and proteins of hBMECs (West Nile virus, UniProt P06935); assay: Blocking of interaction between rDIII and proteins of hBMECs by peptides (ELISA); type: binding, West Nile virus / human
T1 construct: rDIII – recombinant domain III; made in house; host or cells: E. coli M15
T1 sequence (P06935 584-692 limits assumed): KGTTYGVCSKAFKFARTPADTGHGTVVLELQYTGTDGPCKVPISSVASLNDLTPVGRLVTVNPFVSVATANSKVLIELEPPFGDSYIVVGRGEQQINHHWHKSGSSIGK
Protocol: First, concentration-dependent ELISA and Western blot were performed to get the minimum concentration of rDIII required to show its interaction with hBMECs proteins. Details are presented in Supplementary Method S12 and Supplementary Method S13. Subsequently, the ability of 7-mer and 12-mer peptides to block the interaction between rDIII and proteins of hBMECs was tested. A tenfold molar excess of peptides was incubated with rDIII for 1 h at room temperature. Such pre-incubated rDIII was subsequently used in the assays. Details of both methods are described in Supplementary Method S12 and Supplementary Method S13. […]
Blocking of interaction between rDIII and proteins of hBMECs by peptides (ELISA). First, different concentrations of rDIII were tested to get the minimum concentration of rDIII required to show the interaction with hBMECs proteins. Protein extract of hBMECs (4 μg/well) diluted in coating buffer (0.5 M Na2CO3, 0.5 M NaHCO3; pH 9.5) was incubated in the microtiter wells for overnight at 4°C. Unbound hBMECs proteins were washed with PBS (pH 7.3) containing 0.05% Tween 20 (0.05% PBST) and non-specific binding sites were blocked with 0.5% BSA in 0.05% PBST. rDIII at different concentrations (5 µg, 2.5 µg, 2 µg, 1 µg, 500 […]
ng, 250 ng, 125 ng, and 62.5 ng) diluted in 0.05% PBST was added into wells and incubated for 3 h at room temperature and constant shaking. Wells were washed 3 times with 0.05% PBST and incubated with HisProbe-HRP conjugate (1:5,000 dilution in 0.1% BSA in 0.05% PBST; Thermo Fisher Scientific) for 30 min at room temperature and constant shaking. […] The reaction was stopped after 25 min with 2 M H2SO4 and the absorbance was measured at 450 nm. […]
After blocking, the wells were washed 3 times with 0.05% PBST, pre-incubated rDIII was added and incubated for 3 h at room temperature with constant shaking. […] The reaction was stopped after 25 min with 2 M H2SO4 and the absorbance was measured at 450 nm. hBMECs proteins incubated with untreated rDIII were used as a positive control. […]

hBMECs = assay: Peptide cytotoxicity assay (XTT); type: cell-based, human; conditions: 1 μM, 2 μM, 4 μM and 6 μM; 24 h
Protocol: The toxicity of peptides was determined by the XTT test (AppliChem, USA) as per the manufacturer’s instructions. Details are presented in Supplementary Method S15. […]
Cytotoxicity assay. hBMECs were cultured in 96-well TPP tissue culture plates (Sigma) in supplemented EBM-2 medium (Lonza) to obtain ~70% confluency (as described in Supplementary Method S1). The peptides in concentrations of 1 µM, 2 µM, 4 µM, and 6 µM (diluted in 100 µL of EBM-2 medium supplemented only with 10% FBS, 10 mM HEPES and 1 ng/mL bFGF; Sigma) were added and incubated for 24 h at 37°C in a humid atmosphere of 5% CO2. Untreated cells served as a negative control (100% viability). For positive control, cells treated with 0.01% Triton X-100 were used. After incubation, the mixture of XTT and activation reagent (5:0.1 [v/v], 50 µL each well) was added to each well and incubated for an additional 3 h at 37°C in a humid atmosphere of 5% CO2. The absorbance was measured at 450 nm. The assay was performed in replicates. The viability (%) of endothelial cells was calculated using the formula: Cell viability (%) = [(A - xA ) × 100] / (xA -

Hemolysis assay = type: cell-based; conditions: sheep, red blood cells (washed, in saline); 1 μM and 6 μM; 1 h and 5 h; threshold for hemolytic activity > 10%; read-out: hemolysis, maximum release of the hemoglobin
Protocol: Hemolysis assay was performed according to the method of Bender et al.[94]. Details are presented in Supplementary Method S16. […]
Assessment of the hemolytic activity. Sheep whole blood (10 mL) was centrifuged at 2000 rpm for 5 min at room temperature. The red blood cells (RBCs) were carefully separated from […]
plasma and washed 3 times with saline (0.9% NaCl). The washed RBCs were resuspended in saline (50 mL). Peptides at two different concentrations (1 µM and 6 µM) resuspended in saline solution (100 µL) were added to the RBCs suspension (100 µL). As a positive control (100% lysis), 0.1% Triton X-100 was used. Negative control (0% lysis) was prepared by adding only saline (100 µL) to the RBCs suspension (100 µL). All samples were incubated at 37°C for 1 h and 5 h. The mixtures were gently shaked every 30 min. After incubation, the RBCs were separated by centrifugation (2000 rpm for 5 min) and the supernatant (100 µL) was incubated for 30 min at ambient conditions to oxidize the hemoglobin. The absorbance of oxyhemoglobin present in the supernatant was assessed by absorption at 414 nm. The assay was performed in triplicates. The hemolysis (%) of the RBCs was calculated using the following formula: Hemolysis (%) = [(Asample - xĀ negative control) / xĀ positive control] × 100. […]
(TCID50/ml) exactly as described before1. […]

CC[C@H](C)[C@@H]1NC(=O)[C@@H](NC(=O)[C@H](C)N)CSSC[C@@H](C(=O)NCC(=O)NCC(=O)NCC(=O)N[C@@H](CO)C(=O)O)NC(=O)[C@H](C)NC(=O)[C@H](CCCNC(=N)N)NC(=O)[C@H]([C@@H](C)O)NC(=O)[C@H](CO)NC(=O)[C@H](CO)NC(=O)[C@H](Cc2c[nH]cn2)NC1=O [CP4, CIHSSTRAC]
A450, rDIII binding to hBMECs proteins after pre-incubation with peptide ([1]; pre-incubated with tenfold molar excess (1.5 nM) of peptide, positive control A450 = 1.064): 0.346
inhibition of the interaction between rDIII and hBMECs proteins ([1]; rDIII 0.15 nM pre-incubated with tenfold molar excess (1.5 nM) of peptide, ELISA): 67%
cytotoxic effect on hBMECs (XTT) (hBMECs): None of the peptides was toxic
hemolysis (Hemolysis assay): < 0.15%
